Test results from PubChem BioAssay (NCI).
Values joined by “and” are separate entries in the source; they are usually repeats but may differ in a detail not shown here. Equal values may be shown once.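 Grown in 96-well plates, cells were treated for 48 hours with each compound at five concentrations. Insufficient inhibition: endpoint recorded as highest concentration tested. Here, GI50 denotes the concentration required for 50% inhibition of growth. TGI marks complete inhibition of growth.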

Legend:
Test in all cases: inhibition of tumour cell growth, NCI panel, 48 h
[1] = tested on: UO-31 renal
[2] = tested on: TK-10 renal
[3] = tested on: HOP-92 NSCLC
[4] = tested on: SK-MEL-2 melanoma
[5] = tested on: CCRF-CEM leukemia
[6] = tested on: NCI-H522 lung
[7] = tested on: T-47D breast
[8] = tested on: HS 578T breast

| Compound | GI50 [1] | TGI [1] | GI50 [2] | TGI [2] [µM] | GI50 [3] | TGI [3] | GI50 [4] | TGI [4] | GI50 [5] | TGI [5] [µM] | TGI [6] | GI50 [7] | TGI [7] [µM] | GI50 [8] | TGI [8] | GI50 [6] [µM] |
| --- | --- | --- | --- | --- | --- | --- | --- | --- | --- | --- | --- | --- | --- | --- | --- | --- |
| Cc1ccc(NS(=O)(=O)c2cccc(C#N)c2)c2[nH]cc(C#N)c12 | 14.7 µM and 9.17 µM | 63.8 µM and 56.3 µM | 24.6 µM and 22.4 µM | > 92.5 | 7.78 µM and 12.8 µM | 38.1 µM and 48.2 µM | 22.5 µM and 15.1 µM | 59.7 µM and 52.4 µM | 11.9 µM and 14.3 µM | > 100 | 59.9 µM and 23.2 µM | 5.21 µM and 10.2 µM | > 86.4 | 16.4 µM and 20 µM | 78.8 µM and > 96.3 µM | – |
| O=C1/C(=C/c2ccc(Cl)cc2)CCC/C1=C\c1ccc(Cl)cc1 | 10.8 µM | > 100 µM | 6.81 µM | > 100 | > 100 µM | > 100 µM | > 100 µM | > 100 µM | 3.64 µM | > 100 | 8.52 µM | 8.76 µM | > 100 | 3.43 µM | > 100 µM | 2.78 |
| COc1ccc2c(c1)C(=O)/C(=C/c1ccc([N+](=O)[O-])o1)O2 | 0.796 µM | 2.46 µM | 1.05 µM | 2.59 | 0.793 µM | 2.79 µM | 1.83 µM | 3.83 µM | 0.513 µM | 2.19 | 1.05 µM | 0.77 µM | 2.59 | 2.58 µM | > 26.8 µM | 0.527 |
| Cc1cn2c(/C=N/N=C(N)N)c(-c3ccccn3)nc2s1 | 7.98 µM | > 20.5 µM | 16.1 µM | 32.8 | 7.35 µM | 16.9 µM | 14 µM | 48.1 µM | 12.3 µM | > 100 | 53.3 µM | 7.59 µM | 18.2 | 19.5 µM | 55.6 µM | 14.2 |
| CSC(=S)OC1CC(n2cnc3c(NC(=O)c4ccccc4)ncnc32)OC1CO[Si](C)(C)C(C)(C)C (stereo not drawn) | – | 28 µM | – | > 56.2 | – | 44.4 µM | – | 53.4 µM | – | > 51.7 | > 56.2 µM | – | > 56.2 | – | > 56.2 µM | – |
| CC1=C(C(=O)Nc2cc(Cl)c3[nH]ncc3c2)C(c2ccc(C(F)(F)F)cc2)CC(=O)N1 (stereo not drawn) | 2 µM | > 25 µM | > 17.6 µM | > 25 | 0.145 µM | > 25 µM | > 25 µM | > 25 µM | 13.8 µM | > 25 | > 25 µM | > 12.8 µM | > 25 | 0.898 µM | > 25 µM | > 18.7 |
| CC([C@H]1CCC2C3CCC4C[C@@H](N)CC[C@]4(C)C3CC[C@@]21C)N(C)C (stereo partly drawn) | 2.34 µM | 7.74 µM | 12 µM | 28.3 | 4.53 µM | 25.9 µM | 8.45 µM | 21.3 µM | 6.69 µM | 23.3 | 21.3 µM | 3.23 µM | 17.9 | 3.35 µM | 16.1 µM | 7.25 |
| CC(C(N)C(=O)NC(C(=O)O)C1OC(n2ccc(=O)[nH]c2=O)C(O)C1O)C(O)c1ccc(O)cn1 (stereo not drawn) | – | > 100 µM | – | > 100 | – | > 100 µM | – | > 100 µM | – | > 100 | > 100 µM | – | > 100 | – | > 100 µM | – |
| CC1(N)CCN(c2cnc(-c3cccc(Cl)c3Cl)c(N)n2)CC1 | 3.3 µM | 17.9 µM | 2.8 µM | 53.2 | 0.553 µM | 5.44 µM | 20.1 µM | 46.4 µM | 23.2 µM | > 100 | 65.8 µM | 17.3 µM | 68.4 | 13.3 µM | 64 µM | 14.9 |
| Oc1ccc(C2c3ccccc3Oc3ccccc32)c2cccnc12 | 1.21 µM | 19.7 µM | 1.09 µM | > 100 | 1.86 µM | 98.7 µM | 2.31 µM | 69.5 µM | 0.738 µM | > 100 | > 100 µM | 2.95 µM | > 100 | 3.45 µM | > 100 µM | 2.57 |
| CCc1ccc(C(=Nc2ccc(N(C)C(=O)CN3CCN(C)CC3)cc2)c2c(O)[nH]c3ccc(C(=O)OC)cc23)cc1 | 0.287 µM | 1.36 µM | 0.233 µM | 2.11 | 1.23 µM | 2.63 µM | 1.23 µM | 2.83 µM | 0.256 µM | 1.16 | 2.38 µM | 0.87 µM | 2.68 | 0.169 µM | 1.1 µM | 0.586 |
| CC1(C)NCCC[C@]2(C)[C@H]3CC[C@@H]4[C@H]5[C@H](C(=O)/C=C/c6ccccn6)CC[C@]5(CO)CC[C@@]4(C)[C@]3(C)CC[C@@H]12 | 5.7 µM | 23.3 µM | 4.8 µM | 24.8 | 1.99 µM | 7.73 µM | 2.49 µM | 6.91 µM | 2.71 µM | 11.4 | 4.45 µM | 2.78 µM | 16 | 4.39 µM | 23.6 µM | 1.81 |
| CN(Cc1cc(Br)cc(Br)c1O)Cc1c(O)ccc2ccccc12 | – | 30.9 µM | – | 36.4 | – | 39.4 µM | – | 35.6 µM | – | 60.6 | 74.5 µM | – | 43.8 | – | 77.2 µM | – |
| O=C1C2CCN(CC2)C1(CO)CO | – | 34.1 µM | – | 32.2 | – | 46.6 µM | – | > 100 µM | – | 32.2 | 33.2 µM | – | 45.4 | – | 70.6 µM | – |
| CN1CCN(c2ccc(NC(=O)c3cncnc3Nc3ccc(OCc4ccccn4)c(Cl)c3)cc2)CC1 | 3.89 µM | 9.97 µM | 6.78 µM | 15.3 | 3.11 µM | 9.28 µM | 4.74 µM | 11 µM | 1.86 µM | 10.5 | 10.4 µM | 1.98 µM | 7.83 | 4.17 µM | 13.5 µM | 4.48 |
| C=C1C(=O)O[C@H]2[C@H]1CC/C(COC(=O)C(C)c1ccc(CC(C)C)cc1)=C\CC[C@@]1(C)O[C@@H]21 (stereo partly drawn) | 1.28 µM | 2.54 µM | 1.74 µM | 3.19 | 0.747 µM | 2.14 µM | 1.89 µM | 3.72 µM | 0.228 µM | 1.03 | 3.4 µM | 1.72 µM | 4.43 | 2.04 µM | 5.97 µM | 1.71 |
